Measured values as given in patent US10947188B2, “Small molecule ferroptosis inducers” (THE TRUSTEES OF COLUMBIA UNIVERSITY IN THE CITY OF NEW YORK, priority 2016, dated 2021).

Tested on: HT-1080
Assay: Modulatory profiling: Alamar Blue viability, lethal compound cotreated with death modulator (EC50, AUC); on AUC HT.BHA: reference of the scale not given here; on AUC HT.EGTA: reference of the scale not given here
Type: cell-based
Set-up: AUC, modulator HT.3MA / AUC, modulator HT.ALLN / AUC HT.ATA / AUC HT.ActD / AUC HT.BHA / AUC HT.BHT / AUC HT.BocD / AUC HT.CHX / AUC HT.Co2+ / AUC HT.DPQ / AUC HT.EGTA / AUC HT.Lmim / AUC HT.NAD+ / AUC HT.Nec-1 / AUC HT.SP600125 / AUC HT.TLCK / AUC HT.U0126: unit not given beside the values
Settings: for AUC HT.ATA: HT-1080, modulator ATA; for AUC HT.ActD: HT-1080, modulator ActD; for AUC HT.BHA: HT-1080, modulator BHA; for AUC HT.BHT: HT-1080, modulator BHT; for AUC HT.BocD: HT-1080, modulator BocD; for AUC HT.CHX: HT-1080, modulator CHX; for AUC HT.Co2+: HT-1080, modulator Co2+; for AUC HT.CspA: HT-1080, modulator CspA; for AUC HT.DPQ: HT-1080, modulator DPQ; for AUC HT.EGTA: HT-1080, modulator EGTA; for AUC HT.Gd3+: HT-1080, modulator Gd3+; for AUC HT.LNAME: HT-1080, modulator LNAME; for AUC HT.Lmim: HT-1080, modulator Lmim; for AUC HT.NAD+: HT-1080, modulator NAD+; for AUC HT.NMMA: HT-1080, modulator NMMA; for AUC HT.Nec-1: HT-1080, modulator Nec-1; for AUC HT.Pepstatin: HT-1080, modulator Pepstatin; for AUC HT.SP600125: HT-1080, modulator SP600125; for AUC HT.TLCK: HT-1080, modulator TLCK; for AUC HT.U0126: HT-1080, modulator U0126; for HT.atoc (AUC) / HT.bCarotene (AUC) / HT.deferox (AUC) / HT.digoxin (AUC) / HT.trolox (AUC) / HT.zVAD (AUC): HT-1080; for HT.atoc (AUC): modulator atoc; for HT.bCarotene (AUC): modulator bCarotene; for HT.deferox (AUC): modulator deferox; for HT.digoxin (AUC): modulator digoxin; for HT.trolox (AUC): modulator trolox; for HT.zVAD (AUC): modulator zVAD; for AUC, modulator HT.3MA / AUC, modulator HT.ALLN: HT-1080 cells, modulatory profile value (AUC); for AUC, modulator HT.3MA: lethal compound cotreated with modulator 3MA; for AUC, modulator HT.ALLN: lethal compound cotreated with modulator ALLN

SMILES	AUC HT.ATA	AUC HT.ActD	AUC HT.BHA	AUC HT.BHT	AUC HT.BocD	AUC HT.CHX	AUC HT.Co2+	AUC HT.CspA	AUC HT.DPQ	AUC HT.EGTA	AUC HT.Gd3+	AUC HT.LNAME	AUC HT.Lmim	AUC HT.NAD+	AUC HT.NMMA	AUC HT.Nec-1	AUC HT.Pepstatin	AUC HT.SP600125	AUC HT.TLCK	AUC HT.U0126	also measured
CC(C)C[C@H](NC(=O)[C@H](Cc1ccccc1)NC(=O)c1cnccn1)B(O)O [Bortezomib]	0.0541	−0.07229	−0.04985	−0.131	0.02874	0.02631	0.06445	−0.2224	0.01079	−0.006629	−0.02823	0.009924	0.01347	0.139	0.01354	−0.06186	−8.033E−05	−0.03028	0.07195	−0.03187	HT.atoc (AUC): 0.007023; HT.bCarotene (AUC): −0.01914; HT.deferox (AUC): −0.01672; HT.digoxin (AUC): 0.07916; HT.trolox (AUC): −0.004183; HT.zVAD (AUC): 0.01074; AUC, modulator HT.3MA: −0.07171; AUC, modulator HT.ALLN: −0.08587
O=C(CCCCCN1C(=O)c2cccc3cccc(c23)C1=O)NO [Scriptaid]	−0.03873	−0.1632	−0.05883	−0.103	0.02828	−0.1048	−0.1939	−0.1413	−0.00813	−0.01767	−0.02176	−0.002637	−0.05583	0.01064	0.008869	−0.05617	−0.01296	−0.07	−0.05575	−0.04228	HT.atoc (AUC): −0.009331; HT.bCarotene (AUC): −0.01872; HT.deferox (AUC): −0.1469; HT.digoxin (AUC): −0.08793; HT.trolox (AUC): −0.02986; HT.zVAD (AUC): 0.02988; AUC, modulator HT.3MA: −0.1244; AUC, modulator HT.ALLN: −0.1403
COc1ccc(Nc2ccc3c(c2)=NC2(CCCCC2)[N+]=3[O-])cc1 [CIL9]	−0.003144	−0.064	−0.04477	−0.1803	−0.02376	0.07227	0.01754	−0.03079	−0.003317	−0.006848	−0.04358	0.02124	−0.05469	0.02617	−0.03733	0.02133	−0.002188	0.01016	0.005514	0.03915	HT.atoc (AUC): 0.05157; HT.bCarotene (AUC): −0.006502; HT.deferox (AUC): 0.05678; HT.digoxin (AUC): −0.01984; HT.trolox (AUC): −0.03599; HT.zVAD (AUC): −0.00166; AUC, modulator HT.3MA: 0.04492; AUC, modulator HT.ALLN: −0.02077
CC1CC(C)(C)Nc2ccc(OC(=O)c3ccco3)cc21 (centres unmarked) [CIL4]	0.02806	−0.001463	−0.00931	−0.02212	0.1272	0.1096	−0.144	−0.04696	0.007359	0.01533	−0.009953	0.01005	−0.01928	−0.01381	−0.007501	0.002499	0.00928	−0.006297	0.0172	0.0005624	HT.atoc (AUC): 0.02362; HT.bCarotene (AUC): 0.001026; HT.deferox (AUC): −3.785E−05; HT.digoxin (AUC): −0.02389; HT.trolox (AUC): −0.0201; HT.zVAD (AUC): 0.0146; AUC, modulator HT.3MA: 0.02219; AUC, modulator HT.ALLN: 0.02482
C=C(C)[C@H]1Cc2c(ccc3c2O[C@@H]2COc4cc(OC)c(OC)cc4[C@@H]2C3=O)O1 [Rotenone]	0.05899	0.1062	−0.02184	0.02467	0.05103	0.07793	0.2003	−0.1722	−0.005403	0.002258	0.01051	−0.007377	0.1413	0.1563	0.007832	0.003921	−0.02255	−0.01964	0.0438	0.1384	HT.atoc (AUC): 0.04769; HT.bCarotene (AUC): 0.003594; HT.deferox (AUC): 0.347; HT.digoxin (AUC): 0.1617; HT.trolox (AUC): 0.003895; HT.zVAD (AUC): 0.01972; AUC, modulator HT.3MA: 0.06289; AUC, modulator HT.ALLN: 0.07973
